Experimental data from US20230133958A1, “COMPOUNDS USEFUL IN MODULATING EGFR AND PI3K” (Mekanistic Therapeutics LLC, priority 2021, published 2023).

Assays:
Assay type in all cases: cell-based
[1] = tested on: SF-295; experiment: NCI COMPARE panel (SRB growth inhibition), SF-295; conditions: Homo sapiens; CNS Cancer, SF-295, 48 h
Procedure: (§1) The human tumor cell lines of the cancer screening panel are grown in RPMI 1640 medium containing 5% fetal bovine serum and 2 mM L-glutamine. For a typical screening experiment, cells are inoculated into 96 well microtiter plates in 100 µL at plating densities ranging from 5,000 to 40,000 cells/well depending on the doubling time of individual cell lines. After cell inoculation, the microtiter plates are incubated at 37° C., 5% CO2, 95% air and 100% relative humidity for 24 h prior to addition of experimental drugs.
(§2) After 24 h, two plates of each cell line are fixed in situ with TCA, to represent a measurement of the cell population for each cell line at the time of drug addition (Tz). Experimental drugs are solubilized in dimethyl sulfoxide at 400-fold the desired final maximum test concentration and stored frozen prior to use. […]
(§3) Following drug addition, the plates are incubated for an additional 48 h at 37° C., 5 % CO2, 95% air, and 100% relative humidity. […] Bound stain is subsequently solubilized with 10 mM trizma base, and the absorbance is read on an automated plate reader at a wavelength of 515 nm. […] Using the seven absorbance measurements [time zero, (Tz), control growth, (C), and test growth in the presence of drug at the five concentration levels (Ti)], the percentage growth is calculated at each of the drug concentrations levels. Percentage growth inhibition is calculated as: […]

[2] = tested on: NCI-H322M; experiment: NCI COMPARE panel (SRB growth inhibition), NCI-H322M; conditions: Homo sapiens, Non-Small Cell Lung Cancer, 48 h
Procedure: as §1, §2, §3

[3] = tested on: HOP-92; experiment: NCI COMPARE panel (SRB growth inhibition), HOP-92; conditions: Homo sapiens; Non-Small Cell Lung Cancer, HOP-92, 48 h
Procedure: as §1, §2, §3

[4] = tested on: UACC-257; experiment: NCI COMPARE panel (SRB growth inhibition), UACC-257; conditions: Homo sapiens; Melanoma, UACC-257, 48 h
Procedure: as §1, §2, §3

[5] = tested on: M14; experiment: NCI COMPARE panel (SRB growth inhibition), M14; conditions: Homo sapiens; Melanoma, M14, 48 h
Procedure: as §1, §2, §3

[6] = tested on: NCI-H23; experiment: NCI COMPARE panel (SRB growth inhibition), NCI-H23; conditions: Homo sapiens; Non-Small Cell Lung Cancer, NCI-H23, 48 h
Procedure: as §1, §2, §3

[7] = tested on: HS 578T; experiment: NCI COMPARE panel (SRB growth inhibition), HS 578T; conditions: Homo sapiens, Breast Cancer, 48 h
Procedure: as §1, §2, §3

[8] = tested on: SN12C; experiment: NCI COMPARE panel (SRB growth inhibition), SN12C; conditions: Homo sapiens, Renal Cancer, 48 h
Procedure: as §1, §2, §3

[9] = tested on: CCRF-CEM; experiment: NCI COMPARE panel (SRB growth inhibition), CCRF-CEM; conditions: Homo sapiens, Leukemia, 48 h
Procedure: as §1, §2, §3

[10] = tested on: U251; experiment: NCI COMPARE panel (SRB growth inhibition), U251; conditions: Homo sapiens, U-251; CNS Cancer, U251, 48 h
Procedure: as §1, §2, §3

[11] = tested on: MCF7; experiment: NCI COMPARE panel (SRB growth inhibition), MCF7; conditions: Homo sapiens; Breast Cancer, MCF7, 48 h
Procedure: as §1, §2, §3

[12] = tested on: CAKI-1; experiment: NCI COMPARE panel (SRB growth inhibition), CAKI-1; conditions: Homo sapiens; Renal Cancer, CAKI-1, 48 h
Procedure: as §1, §2, §3

[13] = tested on: OVCAR-5; experiment: NCI COMPARE panel (SRB growth inhibition), OVCAR-5; conditions: Homo sapiens; Ovarian Cancer, OVCAR-5, 48 h
Procedure: as §1, §2, §3

[14] = tested on: HCT-15; experiment: NCI COMPARE panel (SRB growth inhibition), HCT-15; conditions: Homo sapiens; Colon Cancer, HCT-15, 48 h
Procedure: as §1, §2, §3

[15] = tested on: RXF 393; experiment: NCI COMPARE panel (SRB growth inhibition), RXF 393; conditions: Homo sapiens; Renal Cancer, RXF 393, 48 h
Procedure: as §1, §2, §3

[16] = tested on: SK-MEL-2; experiment: NCI COMPARE panel (SRB growth inhibition), SK-MEL-2; conditions: Homo sapiens; Melanoma, SK-MEL-2, 48 h
Procedure: as §1, §2, §3

[17] = tested on: HOP-62; experiment: NCI COMPARE panel (SRB growth inhibition), HOP-62; conditions: Homo sapiens; Non-Small Cell Lung Cancer, HOP-62, 48 h
Procedure: as §1, §2, §3

[18] = tested on: NCI-H460; experiment: NCI COMPARE panel (SRB growth inhibition), NCI-H460; conditions: Homo sapiens; Non-Small Cell Lung Cancer, NCI-H460, 48 h
Procedure: as §1, §2, §3

[19] = tested on: SW-620; experiment: NCI COMPARE panel (SRB growth inhibition), SW-620; conditions: Homo sapiens; Colon Cancer, SW-620, 48 h
Procedure: as §1, §2, §3

[20] = tested on: PC-3; experiment: NCI COMPARE panel (SRB growth inhibition), PC-3; conditions: Homo sapiens; Prostate Cancer, PC-3, 48 h
Procedure: as §1, §2, §3

[21] = tested on: IGROV1; experiment: NCI COMPARE panel (SRB growth inhibition), IGROV1; conditions: Homo sapiens, IGROV-1; Ovarian Cancer, IGROV1, 48 h
Procedure: as §1, §2, §3

## CS(=O)(=O)Nc1cc(-c2ccc3ncc(C#N)c(Nc4cccc(Cl)c4F)c3c2)cnc1Cl [Compound 10, N-[2-chloro-5-[4-(3-chloro-2-fluoro-anilino)-3-cyano-6-quinolyl]-3-pyridyl]methanesulfonamide]
[1]
  GI50: 125 to 250 nM
[2]
  GI50: > 250 nM
[3]
  GI50: ≤ 75 nM
[4]
  GI50: > 250 nM
[5]
  GI50: > 250 nM
[6]
  GI50: 125 to 250 nM
[7]
  GI50: ≤ 75 nM
[8]
  GI50: 75 to 125 nM
[9]
  GI50: ≤ 75 nM
[10]
  GI50: ≤ 75 nM
[11]
  GI50: ≤ 75 nM
[12]
  GI50: ≤ 75 nM
[13]
  GI50: > 250 nM
[14]
  GI50: 75 to 125 nM
[15]
  GI50: ≤ 75 nM
[16]
  GI50: ≤ 75 nM
[17]
  GI50: 125 to 250 nM
[18]
  GI50: > 250 nM
[19]
  GI50: ≤ 75 nM
[20]
  GI50: 125 to 250 nM
[21]
  GI50: 75 to 125 nM

## CS(=O)(=O)Nc1cc(-c2ccc3ncnc(Nc4cccc(Cl)c4F)c3c2)cnc1Cl [Compound 6, N-[2-chloro-5-[4-(3-chloro-2-fluoro-anilino)quinazolin-6-yl]-3-pyridyl] methanesulfonamide]
[1]
  GI50: 125 to 250 nM
[2]
  GI50: 125 to 250 nM
[3]
  GI50: ≤ 75 nM
[4]
  GI50: 125 to 250 nM
[5]
  GI50: 125 to 250 nM
[6]
  GI50: 125 to 250 nM
[7]
  GI50: ≤ 75 nM
[8]
  GI50: 125 to 250 nM
[9]
  GI50: 125 to 250 nM
[10]
  GI50: > 250 nM
[11]
  GI50: ≤ 75 nM
[12]
  GI50: ≤ 75 nM
[13]
  GI50: 125 to 250 nM
[14]
  GI50: 125 to 250 nM
[15]
  GI50: 75 to 125 nM
[16]
  GI50: 125 to 250 nM
[17]
  GI50: 75 to 125 nM
[18]
  GI50: > 250 nM
[19]
  GI50: > 250 nM
[20]
  GI50: 125 to 250 nM
[21]
  GI50: ≤ 75 nM
